Reference: patent US10709758B2 (priority 2015, dated 2020)

Molecular target: TcdB1 (Clostridioides difficile, UniProt P18177)
Sequence (P18177 2-2366 limits assumed): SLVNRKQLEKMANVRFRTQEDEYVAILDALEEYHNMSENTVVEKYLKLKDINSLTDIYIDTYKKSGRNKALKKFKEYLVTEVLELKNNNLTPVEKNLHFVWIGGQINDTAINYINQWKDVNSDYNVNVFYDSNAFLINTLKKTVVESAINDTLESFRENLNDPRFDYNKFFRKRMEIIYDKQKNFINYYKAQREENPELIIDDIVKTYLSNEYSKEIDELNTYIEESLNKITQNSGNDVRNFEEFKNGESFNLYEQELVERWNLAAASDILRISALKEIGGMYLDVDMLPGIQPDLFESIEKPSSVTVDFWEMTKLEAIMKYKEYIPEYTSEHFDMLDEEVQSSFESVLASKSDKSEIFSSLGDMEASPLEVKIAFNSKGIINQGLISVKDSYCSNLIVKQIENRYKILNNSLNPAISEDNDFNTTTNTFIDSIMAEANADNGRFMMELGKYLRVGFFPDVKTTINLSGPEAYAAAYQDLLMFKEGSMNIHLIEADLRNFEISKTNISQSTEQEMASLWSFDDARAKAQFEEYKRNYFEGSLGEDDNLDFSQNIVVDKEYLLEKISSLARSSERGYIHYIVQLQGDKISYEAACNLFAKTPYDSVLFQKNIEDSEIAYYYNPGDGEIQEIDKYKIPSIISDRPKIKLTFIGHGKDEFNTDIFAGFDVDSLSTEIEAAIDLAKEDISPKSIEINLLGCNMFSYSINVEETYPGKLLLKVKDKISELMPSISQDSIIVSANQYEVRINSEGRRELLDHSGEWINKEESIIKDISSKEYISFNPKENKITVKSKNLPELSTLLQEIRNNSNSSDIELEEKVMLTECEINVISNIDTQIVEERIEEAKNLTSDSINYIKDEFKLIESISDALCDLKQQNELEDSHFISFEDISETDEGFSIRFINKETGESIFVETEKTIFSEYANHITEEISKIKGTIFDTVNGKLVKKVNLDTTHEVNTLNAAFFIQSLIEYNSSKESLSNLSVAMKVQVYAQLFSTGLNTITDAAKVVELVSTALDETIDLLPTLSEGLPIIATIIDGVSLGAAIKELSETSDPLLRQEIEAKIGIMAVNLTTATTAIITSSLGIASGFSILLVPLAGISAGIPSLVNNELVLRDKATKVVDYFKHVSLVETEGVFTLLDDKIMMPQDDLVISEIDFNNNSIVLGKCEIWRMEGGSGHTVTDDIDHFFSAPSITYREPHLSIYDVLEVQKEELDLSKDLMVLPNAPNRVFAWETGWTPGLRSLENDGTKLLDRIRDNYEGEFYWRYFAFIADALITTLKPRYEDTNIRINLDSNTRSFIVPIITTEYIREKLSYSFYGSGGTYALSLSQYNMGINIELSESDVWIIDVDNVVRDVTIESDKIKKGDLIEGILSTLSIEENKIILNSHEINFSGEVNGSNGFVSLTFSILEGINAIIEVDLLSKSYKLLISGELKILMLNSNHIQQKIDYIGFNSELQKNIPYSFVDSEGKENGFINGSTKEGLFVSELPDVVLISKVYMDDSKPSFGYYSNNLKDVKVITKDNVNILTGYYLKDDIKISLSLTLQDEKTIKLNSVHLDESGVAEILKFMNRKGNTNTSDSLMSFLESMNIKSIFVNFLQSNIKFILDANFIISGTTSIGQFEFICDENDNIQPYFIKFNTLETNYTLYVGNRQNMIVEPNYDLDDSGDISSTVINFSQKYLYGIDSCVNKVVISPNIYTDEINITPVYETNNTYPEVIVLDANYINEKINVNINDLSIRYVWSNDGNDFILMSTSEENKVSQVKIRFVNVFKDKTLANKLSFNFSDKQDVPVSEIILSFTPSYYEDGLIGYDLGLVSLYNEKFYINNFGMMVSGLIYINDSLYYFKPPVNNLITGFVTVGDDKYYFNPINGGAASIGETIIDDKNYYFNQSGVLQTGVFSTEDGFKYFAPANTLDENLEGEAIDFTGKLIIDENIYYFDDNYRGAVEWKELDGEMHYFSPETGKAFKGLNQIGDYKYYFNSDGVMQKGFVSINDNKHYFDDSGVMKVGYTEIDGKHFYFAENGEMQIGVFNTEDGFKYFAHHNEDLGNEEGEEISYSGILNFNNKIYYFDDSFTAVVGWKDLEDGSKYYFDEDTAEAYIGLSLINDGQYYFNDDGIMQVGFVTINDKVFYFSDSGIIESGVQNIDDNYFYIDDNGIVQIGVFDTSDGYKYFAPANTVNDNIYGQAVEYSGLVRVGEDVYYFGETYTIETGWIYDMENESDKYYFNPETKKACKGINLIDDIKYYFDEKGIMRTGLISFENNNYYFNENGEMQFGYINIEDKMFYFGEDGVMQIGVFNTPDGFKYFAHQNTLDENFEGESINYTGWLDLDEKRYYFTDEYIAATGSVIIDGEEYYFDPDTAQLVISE

Q: Which “increase of the 50% toxic concentration (TC50) of TcdB1” value does the source give for `CC[C@H](C)[C@H](NC(=O)[C@H](CCCCN)NC(=O)[C@H](CC(=O)O)NC(=O)[C@H](CO)NC(=O)[C@@H](NC(=O)[C@@H](NC(=O)[C@H](CC(N)=O)NC(=O)CNC(=O)[C@H](CCCCN)NC(=O)[C@H](Cc1ccccc1)NC(=O)[C@@H](NC(=O)[C@@H](N)CC(N)=O)C(C)C)[C@@H](C)O)[C@@H](C)CC)C(=O)N[C@@H](CO)C(=O)N[C@@H](Cc1ccccc1)C(=O)N[C@@H](CC(N)=O)C(=O)N[C@@H](Cc1ccccc1)C(=O)N[C@@H](CO)C(=O)N[C@@H](CC(=O)O)C(=O)N[C@@H](CCCCN)C(=O)O` [PepB2] here?
A: The value was 500 fold.

Q: And the “protection from cytotoxicity of TcdB1 over a range of toxin concentrations” value?
A: The value was “protects CHO-K1 cells”.
